The values below come from publication PMC12655526, “Effective Oral Delivery of Teriparatide Using Organoclay—Polymethacrylate Nanocomposites for Osteoporosis Therapy” (Pharmaceutics, 2025).

Data set [1] deals with trypsin. Put plainly: Gastrointestinal stability in simulated intestinal fluid (SIF). It counts as in vitro ADME. To be noted: SIF pH 7.4, 20 μg/mL trypsin, 0.5 mg/mL teriparatide, 37 °C, 100 rpm; CD after release in PBS pH 7.4. As to the method: (§1) The conformational integrity of teriparatide encapsulated within nanocomplexes was assessed under simulated gastrointestinal conditions using enzyme-supplemented media. Specifically, samples were incubated in simulated gastric fluid (SGF; pH 1.2, containing 5 μg/mL pepsin) or simulated intestinal fluid (SIF; pH 7.4, supplemented with 20 μg/mL trypsin). Nanoparticles corresponding to 0.5 mg/mL of teriparatide were dispersed in 1 mL of either SGF or SIF and incubated at 37 °C with stirring at 100 rpm. Digestion was quenched with 0.2 mL of 0.2 M NaOH (for SGF) or 0.1 M HCl (for SIF) at predefined times. The nanoparticles were then isolated via centrifugation, redispersed in PBS (pH 7.4), and incubated for 2 h. The conformation of teriparatide following its release from nanoparticles was analyzed by CD spectroscopy to verify structural stability.

The target of data set [2] is T1, pepsin (Sus scrofa, UniProt P00791).
T1 construct: purchased Sigma-Aldrich Co. (St Louis, MO, USA)
Put plainly: Gastrointestinal stability in simulated gastric fluid (SGF). To be noted: SGF pH 1.2, 5 μg/mL pepsin, 0.5 mg/mL teriparatide, 37 °C, 100 rpm; CD after release in PBS pH 7.4. It counts as in vitro ADME. As to the method:
as §1

Data set [3] deals with dexamethasone-induced osteoporosis rats. Briefly: Serum bone-turnover biomarkers in dexamethasone-induced osteoporosis rats. It counts as in vivo, rat. The note with it: 8 weeks daily, oral EE/AC-Teri 16 mg/kg or sc teriparatide 0.04 mg/kg, n = 6. The procedure: The therapeutic effect of orally delivered EE/AC-Teri was examined in dexamethasone-induced osteoporosis rats under an Institutional Animal Care and Use committee (IACUC)-approved protocol (IACUC-2023-039-2). Male Sprague–Dawley rats (280–300 g) were randomly allocated to four groups (n = 6 each). The control group received a daily subcutaneous saline. In the osteoporotic model group, 0.1 mg/kg dexamethasone was administered subcutaneously each day to induce bone loss. The injectable teriparatide treatment group was given a combination of daily subcutaneous dexamethasone (0.1 mg/kg) and teriparatide (0.04 mg/kg). The final group was administered EE/AC-Teri orally (16 mg/kg of teriparatide), in combination with daily subcutaneous dexamethasone (0.1 mg/kg). After 8 week-treatment, blood was drawn for biochemical analysis. […] Serum osteocalcin (OCN), procollagen type I N-terminal propeptide (PINP), C-terminal telopeptide of type I collagen (CTx), tartrate-resistant acid phosphatase 5b (TRAP5b), and calcium were quantified with commercial ELISA kits (Thermo Fisher Scientific, Waltham, MA, USA) according to the manufacturer’s instructions. […] Quantitative parameters describing trabecular bone microarchitecture were assessed using Analyze software (ver 12.0; AnalyzeDirect, Overland Park, KS, USA).

Data set [4] has the same test system. Briefly: Micro-CT and histology of femora in dexamethasone-induced osteoporosis rats. It counts as in vivo, rat. As to the method: The therapeutic effect of orally delivered EE/AC-Teri was examined in dexamethasone-induced osteoporosis rats under an Institutional Animal Care and Use committee (IACUC)-approved protocol (IACUC-2023-039-2). Male Sprague–Dawley rats (280–300 g) were randomly allocated to four groups (n = 6 each). The control group received a daily subcutaneous saline. In the osteoporotic model group, 0.1 mg/kg dexamethasone was administered subcutaneously each day to induce bone loss. The injectable teriparatide treatment group was given a combination of daily subcutaneous dexamethasone (0.1 mg/kg) and teriparatide (0.04 mg/kg). The final group was administered EE/AC-Teri orally (16 mg/kg of teriparatide), in combination with daily subcutaneous dexamethasone (0.1 mg/kg). After 8 week-treatment, blood was drawn for biochemical analysis. Blood (0.6 mL) was collected once on day 57 via the jugular vein under 1.5% isoflurane anesthesia in a Tabletop Anesthesia System (Harvard Apparatus, Cambridge, MA, USA). Serum osteocalcin (OCN), procollagen type I N-terminal propeptide (PINP), C-terminal telopeptide of type I collagen (CTx), tartrate-resistant acid phosphatase 5b (TRAP5b), and calcium were quantified with commercial ELISA kits (Thermo Fisher Scientific, Waltham, MA, USA) according to the manufacturer’s instructions. At study completion, animals were euthanized using a 30%/min displacement of chamber air with compressed CO2. Both femora were excised and fixed in 4% neutral-buffered formalin for 48 h. Fixed bones were processed for histological and structural analysis. Some samples were paraffin-embedded and sectioned for histological examination using hematoxylin and eosin (H&E) staining. The remaining specimens were subjected to structural evaluation via micro-computed tomography (micro-CT; the Korea Basic Science Institute). Images were acquired using a 90 kV/80 μA X-ray source over a 4 min acquisition time, with the scan field confined to 10 mm. Reconstructed images were generated at an isotropic voxel resolution of 20 μm. Quantitative parameters describing trabecular bone microarchitecture were assessed using Analyze software (ver 12.0; AnalyzeDirect, Overland Park, KS, USA).

[5] abbreviates: 8 weeks daily, oral EE/AC-Teri 16 mg/kg or sc teriparatide 0.04 mg/kg, dexamethasone rats, femur.

T1 sequence (P00791 60-385): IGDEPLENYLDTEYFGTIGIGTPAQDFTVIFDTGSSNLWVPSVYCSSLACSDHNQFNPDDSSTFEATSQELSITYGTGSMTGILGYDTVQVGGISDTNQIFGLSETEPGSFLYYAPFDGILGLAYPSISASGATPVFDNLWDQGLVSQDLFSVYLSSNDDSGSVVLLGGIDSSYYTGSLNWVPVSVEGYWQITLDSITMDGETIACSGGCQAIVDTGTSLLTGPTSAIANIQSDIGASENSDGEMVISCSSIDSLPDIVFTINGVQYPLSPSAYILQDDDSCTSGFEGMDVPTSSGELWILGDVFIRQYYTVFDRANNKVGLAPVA

In the case of `CC[C@H](C)[C@H](NC(=O)[C@H](CCC(=O)O)NC(=O)[C@H](CO)NC(=O)[C@@H](NC(=O)[C@@H](N)CO)C(C)C)C(=O)N[C@@H](CCC(N)=O)C(=O)N[C@@H](CC(C)C)C(=O)N[C@@H](CCSC)C(=O)N[C@@H](Cc1cnc[nH]1)C(=O)N[C@@H](CC(N)=O)C(=O)N[C@@H](CC(C)C)C(=O)NCC(=O)N[C@@H](CCCCN)C(=O)N[C@@H](Cc1cnc[nH]1)C(=O)N[C@@H](CC(C)C)C(=O)N[C@@H](CC(N)=O)C(=O)N[C@@H](CO)C(=O)N[C@@H](CCSC)C(=O)N[C@@H](CCC(=O)O)C(=O)N[C@@H](CCCN=C(N)N)C(=O)N[C@H](C(=O)N[C@@H](CCC(=O)O)C(=O)N[C@@H](Cc1c[nH]c2ccccc12)C(=O)N[C@@H](CC(C)C)C(=O)N[C@@H](CCCN=C(N)N)C(=O)N[C@@H](CCCCN)C(=O)N[C@@H](CCCCN)C(=O)N[C@@H](CC(C)C)C(=O)N[C@@H](CCC(N)=O)C(=O)N[C@@H](CC(=O)O)C(=O)N[C@H](C(=O)N[C@@H](Cc1cnc[nH]1)C(=O)N[C@@H](CC(N)=O)C(=O)N[C@@H](Cc1ccccc1)C(=O)O)C(C)C)C(C)C` [teriparatide], the “Conformational integrity of teriparatide in SIF (CD spectra)” value in data set [1] is “pronounced conformational alterations in both SGF and SIF”. Also, the “Conformational integrity of teriparatide in SGF (CD spectra)” value in data set [2] is “pronounced conformational alterations in both SGF and SIF”. In addition, in data set [3], the “Serum calcium / hypercalcemia” value is given as “did not produce sustained hypercalcemia”. Further, in data set [4] (setting [5]), the “Trabecular architecture by histology (H&E)” value is listed as “partially restored architecture” and the “Trabecular architecture by micro-CT imaging” value was “mitigated these lesions, preserving a denser, interconnected trabecular network”. The “Bone mineral density (BMD)” value in data set [4] (micro-CT, 8 weeks, oral EE/AC-Teri 16 mg/kg or sc teriparatide 0.04 mg/kg, versus dexamethasone control, n = 6) is “significantly restored”. Further, the “Bone volume fraction (BV/TV)” value in data set [4] (micro-CT, 8 weeks, sc teriparatide 0.04 mg/kg, versus dexamethasone control, n = 6) is given as “significantly restored”.
